US20260109707A1, “HETEROBIFUNCTIONAL COMPOUNDS AND METHODS OF TREATING DISEASE” (Halda Therapeutics OpCo. Inc., priority 2022, published 2026)
Like-named read-outs stand apart in the source and are kept apart here.

Columns and labels:
[1] = system: VCaP cells; test: Cellular growth inhibition assay for VCaP cells (CellTiter-Glo, 72 hours); assay type: cell-based, human
Method: VCaP cells were purchased from American Type Cell Culture (ATCC Cat #CRL2876) and then seeded on poly-D-lysine coated, black clear-bottom 384-well plates at 5000/well in 25 μL Dulbecco's Modified Eagle Medium (DMEM) supplemented with 10% w/w Fetal bovine serum (FBS) and 1% w/w Pen-Strep. Pen-Strep is a commercially available mixture of penicillin G and streptomycin, which is used in mammalian cell culture media to prevent bacterial contamination. Dulbecco's Modified Eagle Medium (DMEM) supplemented with 10% w/w fetal bovine serum (FBS) and 1% w/w Pen-Strep is herein referred to as Treatment Medium. Following seeding of cells in the plates, the plates were spun at 300×g for 30 seconds, then equilibrated to room temperature for 30 minutes, and then deposited in a humidified tissue culture incubator maintained at 37° C. with 5% C0-2.
At 24 hours after seeding of the cells, dilutions of test compound were prepared in DMSO and dissolved in Treatment Medium, to achieve a final DMSO concentration of 0.5% w/w, thereby providing the Test Compound Solution. A 25 μL aliquot of the Test Compound Solution was added to cells in the well plates. An equal volume of a solution containing DMSO and Treatment Medium was used as a negative control. Following treatment of cells with Test Compound Solution or said equal volume of a solution containing DMSO and Treatment Medium, the plates were spun at 300×g for 30 seconds, and then left in an incubator for 72 hours.
At the end of the treatment duration, cell viability was quantified with CellTiter-Glo 2.0 reagent (Promega Cat #G9243). For this purpose, plates were equilibrated to room temperature for 30 minutes, and then 25 μL of CellTiter-Glo 2.0 reagent was added to cells in the plate wells. Plates were then agitated on a shaker for two minutes at 500 rpm and subsequently incubated at room temperature for 10 minutes. Following incubation, the plates were spun at 3000×g for 30 seconds, then sealed with an optical adhesive cover, and luminescence readings were measured with an EnVision Plate Reader.
Data was normalized using zero luminescence for baseline. A four-parameter non-linear regression curve fit was applied to dose-response data in GraphPad Prism data analysis software to determine the half-maximal growth inhibitory concentration (GI50) for each test compound.

[2] = system: T-Rex 293 cell line SC3 cells having increased expression of androgen receptor protein due to exposure to doxycycline; test: Cellular growth inhibition assay, T-Rex 293 SC3 cells with doxycycline (CellTiter-Glo, 72 hours); assay type: cell-based; settings: T-Rex 293 SC3 cells with increased androgen receptor expression due to doxycycline (10 ng/mL)
Method in brief: (§1)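 Growth inhibition is measured in an inducible AR-expressing T-Rex 293 clone, SC3, cultured with or without 10 ng/mL doxycycline in hormone-depleted medium. Test compounds are applied for 72 hours. GI50 values derive from CellTiter-Glo 2.0 signal fitted by four-parameter regression.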

[3] = system: T-Rex 293 cell line SC3 cells lacking increased expression of androgen receptor protein; test: Cellular growth inhibition assay, T-Rex 293 SC3 cells without doxycycline (CellTiter-Glo, 72 hours); assay type: cell-based; settings: T-Rex 293 cell line SC3 cells not exposed to doxycycline (lacking increased androgen receptor expression)
Method in brief: as §1

SMILES | GI50 ([1]; Homo sapiens, VCaP, 72 h) [nM] | GI50 [1] [nM] | GI50 ([2]; 72 h) [nM] | GI50 ([3]; 72 h) [nM] | GI50 [2] [nM] | GI50 [3] [nM]
Cc1sc2c(c1C)C(c1ccc(C#CC3CC4(C3)CN(c3ccc(C(=O)N[C@H]5CC[C@H](Oc6ccc(C#N)c(Cl)c6)CC5)nn3)C4)cn1)=N[C@@H](C)c1nnc(C)n1-2 [I-458] | < 500 |  | < 500 | < 500 |  | 
Cc1sc2c(c1C)C(c1ccc(C#CC3CC4(CCCN(c5ccc(C(=O)N[C@H]6CC[C@H](Oc7ccc(C#N)c(Cl)c7)CC6)nn5)C4)C3)nc1)=N[C@@H](C)c1nnc(C)n1-2 (stereo partly drawn) [I-459] | < 500 |  | < 500 | < 500 |  | 
Cc1sc2c(c1C)C(c1ccc(C#CC3CC4(CCCN(c5ccc(C(=O)N[C@H]6CC[C@H](Oc7ccc(C#N)c(Cl)c7)CC6)nn5)C4)C3)nc1)=N[C@@H](C)c1nnc(C)n1-2 (stereo partly drawn) [I-460] |  | < 500 |  |  | < 500 | 500 to 1500
Cc1sc2c(c1C)C(c1ccc(OC3CC4(CCN(c5ccc(C(=O)N[C@H]6CC[C@H](Oc7ccc(C#N)c(Cl)c7)CC6)nn5)CC4)C3)cn1)=N[C@@H](C)c1nnc(C)n1-2 [I-461] | < 500 |  |  |  | < 500 | > 3000
Cc1sc2c(c1C)C(c1ccc(OC3CC4(CCN(c5ccc(C(=O)N[C@H]6CC[C@H](Oc7ccc(C#N)c(Cl)c7)CC6)nn5)CC4)C3)nc1)=N[C@@H](C)c1nnc(C)n1-2 [I-462] |  | < 500 |  |  | < 500 | > 3000
Cc1sc2c(c1C)C(c1ccc(N3CC(C4CCN(c5ccc(C(=O)N[C@H]6CC[C@H](Oc7ccc(C#N)c(Cl)c7)CC6)nn5)CC4)C3)nc1)=N[C@@H](C)c1nnc(C)n1-2 [I-463] | 500 to 1500 |  | < 500 | 500 to 1500 |  | 
Cc1sc2c(c1C)C(c1ccc(N3CC(C4CCN(c5ccc(C(=O)N[C@H]6CC[C@H](Oc7ccc(C#N)c(Cl)c7)CC6)nn5)CC4)C3)cn1)=N[C@@H](C)c1nnc(C)n1-2 [I-464] | < 500 |  | < 500 | > 3000 |  | 
Cc1sc2c(c1C)C(c1ccc(OC3CC4(C3)CC3(CCN(c5ccc(C(=O)N[C@H]6CC[C@H](Oc7ccc(C#N)c(Cl)c7)CC6)nn5)CC3)C4)cn1)=N[C@@H](C)c1nnc(C)n1-2 [I-465] | < 500 |  | < 500 | > 3000 |  | 
Cc1sc2c(c1C)C(c1ccc(CCN3[C@H](C)CN(c4ccc(C(=O)N[C@H]5CC[C@H](Oc6ccc(C#N)c(Cl)c6)CC5)nn4)C[C@@H]3C)cc1)=N[C@@H](Cc1ncco1)c1nnc(C)n1-2 [I-466] | < 500 |  | < 500 | < 500 |  | 
Cc1sc2c(c1C)C(c1ccc(N3CCC(CCc4ccc(C(=O)N[C@H]5CC[C@H](Oc6ccc(C#N)c(Cl)c6)CC5)nn4)CC3)cc1)=N[C@@H](Cc1ncco1)c1nnc(C)n1-2 [I-467] | < 500 |  | < 500 | < 500 |  | 
Cc1sc2c(c1C)C(c1ccc(OC3(C)CC4(CN(c5ccc(C(=O)N[C@H]6CC[C@H](Oc7ccc(C#N)c(Cl)c7)CC6)nn5)C4)C3)cc1)=N[C@@H](Cc1ncco1)c1nnc(C)n1-2 [I-468] | < 500 |  | < 500 | < 500 |  | 
Cc1sc2c(c1C)C(c1ccc(N3CC4(CC(Cc5ccc(C(=O)N[C@H]6CC[C@H](Oc7ccc(C#N)c(Cl)c7)CC6)nn5)C4)C3)cc1)=N[C@@H](Cc1ncco1)c1nnc(C)n1-2 [I-469] | < 500 |  | < 500 | > 3000 |  | 
Cc1sc2c(c1C)C(c1ccc(OCC3CC4(CCCN(c5ccc(C(=O)N[C@H]6CC[C@H](Oc7ccc(C#N)c(Cl)c7)CC6)nn5)C4)C3)cc1)=NC1(CC1)c1nnc(C)n1-2 (stereo partly drawn) [I-470] |  | 500 to 1500 | < 500 |  |  | 500 to 1500
Cc1sc2c(c1C)C(c1ccc(OCC3CC4(CCCN(c5ccc(C(=O)N[C@H]6CC[C@H](Oc7ccc(C#N)c(Cl)c7)CC6)nn5)C4)C3)cc1)=NC1(CC1)c1nnc(C)n1-2 (stereo partly drawn) [I-471] |  | 1500 to 3000 |  |  | < 500 | > 3000
Cc1sc2c(c1C)C(c1ccc(OC3CC4(CCCN(c5ccc(C(=O)N[C@H]6CC[C@H](Oc7ccc(C#N)c(Cl)c7)CC6)nn5)C4)C3)cc1)=NCc1nnc(C)n1-2 (stereo partly drawn) [I-473] | < 500 |  | < 500 | > 3000 |  | 

Further lines, with some results ahead:

GI50 ([1]; Homo sapiens, VCaP, 72 h) [nM] | GI50 [1] [nM] | SMILES | GI50 ([2]; 72 h) [nM] | GI50 ([3]; 72 h) [nM] | GI50 [2] [nM] | GI50 [3] [nM]
 | > 3000 | Cc1sc2c(c1C)C(c1ccc(CC3CC4(CCCN(c5ccc(C(=O)N[C@H]6CC[C@H](Oc7ccc(C#N)c(Cl)c7)CC6)nn5)C4)C3)cc1)=NCc1nnc(C)n1-2 (stereo partly drawn) [I-474] | < 500 |  |  | > 3000
 | < 500 | Cc1sc2c(c1C)C(c1ccc(OCC3CC4(CCCN(c5ccc(C(=O)N[C@H]6CC[C@H](Oc7ccc(C#N)c(Cl)c7)CC6)nn5)C4)C3)cc1)=NCc1nnc(C)n1-2 (stereo partly drawn) [I-475] | < 500 |  |  | > 3000
< 500 |  | Cc1sc2c(c1C)C(c1ccc(N3CCC4(CCCN(c5ccc(C(=O)N[C@H]6CC[C@H](Oc7ccc(C#N)c(Cl)c7)CC6)nn5)C4)CC3)nc1)=NCc1nnc(C)n1-2 [I-476] | < 500 | > 3000 |  | 
1500 to 3000 |  | Cc1sc2c(c1C)C(c1ccc(N3CCC4(CC3)CCN(c3ccc(C(=O)N[C@H]5CC[C@H](Oc6ccc(C#N)c(Cl)c6)CC5)nn3)C4)nc1)=NC1(CC1)c1nnc(C)n1-2 [I-477] | < 500 | 500 to 1500 |  | 
< 500 |  | Cc1sc2c(c1C)C(c1ccc(N3CC(C4CCN(c5ccc(C(=O)N[C@H]6CC[C@H](Oc7ccc(C#N)c(Cl)c7)CC6)nn5)CC4)C3)nc1)=NCc1nnc(C)n1-2 [I-478] | < 500 | > 3000 |  | 
< 500 |  | Cc1sc2c(c1C)C(c1ccc(OC3CC4(C3)CC3(CCN(c5ccc(C(=O)N[C@H]6CC[C@H](Oc7ccc(C#N)c(Cl)c7)CC6)nn5)CC3)C4)nc1)=NCc1nnc(C)n1-2 [I-479] | < 500 | > 3000 |  | 
< 500 |  | Cc1sc2c(c1C)C(c1ccc(N3CCC(CN4CCN(c5ccc(C(=O)N[C@H]6CC[C@H](Oc7ccc(C#N)c(Cl)c7)CC6)nn5)CC4)CC3)cc1)=NC1(CC1)c1nnc(C)n1-2 [I-480] | < 500 | 500 to 1500 |  | 
 | < 500 | Cc1sc2c(c1C)C(c1ccc(C#CC3CC4(CCCN(c5ccc(C(=O)N[C@H]6CC[C@H](Oc7ccc(C#N)c(Cl)c7)CC6)nn5)C4)C3)cn1)=NC(C)c1nnc(C)n1-2 (stereo partly drawn) [I-481] | < 500 |  |  | < 500
< 500 |  | Cc1sc2c(c1C)C(c1ccc(OCC3CC4(CCCN(c5ccc(C(=O)N[C@H]6CC[C@H](Oc7ccc(C#N)c(Cl)c7)CC6)nn5)C4)C3)cn1)=N[C@@H](C)c1nnc(C)n1-2 (stereo partly drawn) [I-482] | < 500 | < 500 |  | 
 | < 500 | Cc1sc2c(c1C)C(c1ccc(OCC3CC4(CCCN(c5ccc(C(=O)N[C@H]6CC[C@H](Oc7ccc(C#N)c(Cl)c7)CC6)nn5)C4)C3)cn1)=N[C@@H](C)c1nnc(C)n1-2 (stereo partly drawn) [I-483] |  |  | < 500 | < 500
 | < 500 | Cc1sc2c(c1C)C(c1ccc(OC3CC4(CCN(c5ccc(C(=O)N[C@H]6CC[C@H](Oc7ccc(C#N)c(Cl)c7)CC6)nn5)CC4)C3)cn1)=N[C@@H](C)c1nnc(C)n1-2 [I-484] | < 500 |  |  | 500 to 1500
< 500 |  | Cc1sc2c(c1C)C(c1ccc(N3CCC4(CC3)CCN(c3ccc(C(=O)N[C@H]5CC[C@H](Oc6ccc(C#N)c(Cl)c6)CC5)nn3)CC4)cc1)=N[C@@H](C)c1nnc(C)n1-2 [I-485] | < 500 | < 500 |  | 
< 500 |  | Cc1sc2c(c1C)C(c1ccc(OCC3CC4(CCCN(c5ccc(C(=O)N[C@H]6CC[C@H](Oc7ccc(C#N)c(Cl)c7)CC6)nn5)C4)C3)nc1)=NC1(CC1)c1nnc(C)n1-2 (stereo partly drawn) [I-486] | < 500 | > 3000 |  | 
 | < 500 | Cc1sc2c(c1C)C(c1ccc(OCC3CC4(CCCN(c5ccc(C(=O)N[C@H]6CC[C@H](Oc7ccc(C#N)c(Cl)c7)CC6)nn5)C4)C3)nc1)=NC1(CC1)c1nnc(C)n1-2 (stereo partly drawn) [I-487] |  |  | < 500 | > 3000
 | < 500 | Cc1sc2c(c1C)C(c1ccc(CC3CC4(CCCN(c5ccc(C(=O)N[C@H]6CC[C@H](Oc7ccc(C#N)c(Cl)c7)CC6)nn5)C4)C3)cc1)=NCc1nnc(C)n1-2 (stereo partly drawn) [I-488] |  | > 3000 | < 500 | 
 | < 500 | Cc1sc2c(c1C)C(c1ccc(OCC3CC4(CCCN(c5ccc(C(=O)N[C@H]6CC[C@H](Oc7ccc(C#N)c(Cl)c7)CC6)nn5)C4)C3)cc1)=NCc1nnc(C)n1-2 (stereo partly drawn) [I-489] |  |  | < 500 | > 3000
